Measured values: patent US10322143B2, “Inhibitors of ADAMTS4 or ADAMTS5 for use in preventing or treating cardiac remodeling and chronic heart failure” (Universitetet i Oslo, priority 2013, dated 2019)
Marks after values point to notes of the source that are not given here.

Tests used:
TIMP-3 mRNA = TIMP-3 mRNA level (qRT-PCR) in MI rats; assay type: in vivo, rat; conditions: PPS-treatment
Description: (§1) At day 0 to 3 (median 2) after surgery, infarct size was quantified by echocardiography using the Vevo2100 system (Visualsonics Inc, Canada) and magnetic resonance imaging (MRi) using a 9.4 T/210 mm/ASR horizontal bore magnet (Agilent Technologies, Inc., USA). Initially, echocardiography was performed to select moderate to large infarcts ranging approximately 40 to 50%. Thereafter, infarct sizes were exactly measured by late-enhancement gadolinium MRi analyses (Bohl S., et al. American Journal of Physiology, 2009; 296 (4): H1200-H1208) and stratified into small infarcts (stratum 1: <43%, stratum 2: 43-48%), and large infarcts (stratum 3: 48-53%, stratum 4: >53%). The rats in each MI stratum and sham group were randomized to receive intervention or control treatment. The intervention group was treated with 6 mg/kg of sodium PPS (Interfarm AS, Norway), while the control group received vehicle (0.9% NaCl), both injected subcutaneously every third day starting from post-operative day 8-10.
The mRNA levels of the ADAMTS versicanases ADAMTS1, -4, -5, -8, and -20 (Shiomi T, et al. Pathology International 2010; 60(7):477-96), versican, aggrecan, syndecan-4, tissue inhibitor metalloprotease (TIMP)-3, and membrane-type (MT)4-MMP, were quantified in rat left ventricle by qRT-PCR, as previously described in Example 1.

[1] = system: myocardial infarction rats; assay: Myocardial infarction rat model: echocardiography, MRI and organ weights after PPS-treatment; assay type: in vivo; conditions: for EDV (end-diastolic volume, MRI) / Heart weight / LAD (left atrial diameter) / LVDd (left ventricular diameter at diastole) / Lung weight / Max. syst velocity (maximum systolic velocity) / RV weight / VTI (velocity time integral): median (interquartile range)
Excerpt: Male Wistar rats weighing 160-170 grams (approximately 7 weeks old) (Taconic, Skensved Denmark) underwent MI (myocardial infarction) by left coronary artery ligation as described previously (Sjaastad I, et al. J Appl Physiol 2000 October; 89(4):1445-54). In all surgical procedures performed, a mixture of 67% N2O, 28% O2, and 4% isoflurane in an anesthesia chamber was used for preoperative sedation. To maintain anesthesia preoperatively, a mixture of 69% N2O, 29% O2, and 2% isoflurane was given by the endotracheal tube and the animals were ventilated on a respirator (Zoovent, Triumph Technical Services, Milton Keynes, UK). Buprenorphine (0.2 mg/kg) was given as postoperative analgesia after MI. Rats were housed in cages (one or two rats in each cage) with Bee Kay bedding (Scanbur B K, Nittedal, Norway) in 55% humidity on a 12 h light/dark cycle, with food pellets (RM1, 801151, Scanbur B K) and water ad libitum.
as §1
After receiving PPS- or vehicle-treatment for 51 to 56 days (median 55 days), rats were sacrificed after examination by experienced investigators blinded to treatment group. In vivo heart function was evaluated as previously described with echocardiography (Sjaastad I, et al., J Appl Physiol 2000 October; 89(4):1445-54) and MRi (Espe E., Journal of Cardiovascular Magnetic Resonance 2013; 15(1):82). Thereafter, the heart and lung was excised under deep anesthesia, washed in saline and blotted dry to remove blood in the cardiac chambers. The heart chambers were separated by rapid dissection, before left ventricles were divided into infarcted and viable tissue. Lungs and cardiac tissue were snap-frozen in liquid nitrogen and stored at −70° C. until RNA and protein analyses.

versican = assay: Versican DPEEAE fragments (immunoblotting) in MI rats; assay type: in vivo, rat; conditions: PPS-treatment
Description: as §1
Fractional protein lysates from myocardium of rats having undergone MI treated with PPS or vehicle were extracted as previously described in Example 1 and Didangelos et al. (Journal of Biological Chemistry 2012 Jun. 1; 287(23):19341-5). Protein concentrations were measured by western blotting as previously described in Example 1. […]

ADAMTS5 = ADAMTS5 (Homo sapiens (Human), UniProt Q9UNA0); conditions: previous studies; cited from earlier work
Sequence of ADAMTS5 (Q9UNA0 262-930, species assumed): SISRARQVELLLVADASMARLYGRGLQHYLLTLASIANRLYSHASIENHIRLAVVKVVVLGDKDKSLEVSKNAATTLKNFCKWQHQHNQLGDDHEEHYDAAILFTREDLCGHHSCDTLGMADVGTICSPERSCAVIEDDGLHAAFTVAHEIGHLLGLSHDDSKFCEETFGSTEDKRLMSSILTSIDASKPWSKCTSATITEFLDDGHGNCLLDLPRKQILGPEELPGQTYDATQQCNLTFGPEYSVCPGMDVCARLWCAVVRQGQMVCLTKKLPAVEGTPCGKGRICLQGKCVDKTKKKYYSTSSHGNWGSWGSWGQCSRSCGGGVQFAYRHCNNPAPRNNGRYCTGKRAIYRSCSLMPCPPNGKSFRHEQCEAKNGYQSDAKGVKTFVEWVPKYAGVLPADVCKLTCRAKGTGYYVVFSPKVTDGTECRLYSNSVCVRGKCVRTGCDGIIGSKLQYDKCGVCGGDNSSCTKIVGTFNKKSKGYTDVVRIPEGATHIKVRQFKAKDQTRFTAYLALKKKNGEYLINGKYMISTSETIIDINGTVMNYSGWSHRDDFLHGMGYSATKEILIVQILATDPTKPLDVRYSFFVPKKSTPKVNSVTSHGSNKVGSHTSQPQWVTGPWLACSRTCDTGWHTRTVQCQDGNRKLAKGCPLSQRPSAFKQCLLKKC

[2] = MI strata 1 + 2 (small infarcts) PPS, 6 mg/kg s.c. every third day from day 8-10
[3] = MI strata 3 + 4 (large infarcts) PPS, 6 mg/kg s.c. every third day from day 8-10
[4] = Sham PPS, 6 mg/kg s.c. every third day
[5] = rats with large infarcts, PPS vs vehicle

For pentosan polysulfate [PPS], the TIMP-3 level (TIMP-3 mRNA) was “did not change”, the “side effects including hemorrhage” value ([1]; MI rats, 6 mg/kg s.c. every third day, observed daily) was “no side effects” and the “EDV (end-diastolic volume, MRI)” value [1, 2] was 614 (524-707). For the same substance, the Heart weight [1, 2] was 1610 (1450-1760) mg, the “LAD (left atrial diameter)” value [1, 2] was 5.32 (4.25-6.50) mm and the “LVDd (left ventricular diameter at diastole)” value (shortened to “LVDd”) [1, 2] was 9.91 (9.50-10.29) mm. The Lung weight [1, 2] was 1930 (1450-3420) mg, the “Max. syst velocity (maximum systolic velocity)” value (from here on “Max. syst velocity”) [1, 2] was 39.7 (28.3-57.5) and the RV weight [1, 2] was 300 (180-345) mg. The “VTI (velocity time integral)” value [1, 2] was 57.9 (50.8-69.6) mm, the “EDV (end-diastolic volume, MRI)” value [1, 3] was 644 (552-709) and the Heart weight [1, 3] was 1595 (1475-1710) mg. The “LAD (left atrial diameter)” value [1, 3] was 6.88 (5.51-7.31) mm, the “LVDd” value [1, 3] was 10.25 (9.51-10.75) mm and the Lung weight [1, 3] was 2770 (1990-3385) mg. For the same substance, the “Max. syst velocity” value [1, 3] was 41.7 (31.2-52.0)*, the RV weight [1, 3] was 395 (355-523) mg and the “VTI (velocity time integral)” value [1, 3] was 69.8 (51.1-75.9)* mm. The “EDV (end-diastolic volume, MRI)” value [1, 4] was 293 (256-346), the Heart weight [1, 4] was 1005 (980-1248) mg and the “LAD (left atrial diameter)” value [1, 4] was 3.67 (3.45-3.73) mm. The “LVDd” value [1, 4] was 6.91 (6.60-7.88) mm, the Lung weight [1, 4] was 1255 (1158-1280) mg and the “Max. syst velocity” value [1, 4] was 64.0 (46.6-67.2). The RV weight [1, 4] was 168 (160-208) mg, the “VTI (velocity time integral)” value [1, 4] was 58.5 (53.9-65.5) mm and the “reduction in heart weight” value ([1]; rats with large infarcts, PPS vs corresponding vehicle-treated rats) was roughly 25%. For the same substance, the “maximum systolic velocity after PPS-treatment” value [1, 5] was “improved”, the “reduction in left atrial diameter” value [1, 5] was 10% and the “reduction in lung weight” value [1, 5] was 1/3. For the same substance, the “velocity time integral after PPS-treatment” value [1, 5] was “improved”, the “versican DPEEAE fragments” value (versican) was “decreased” and the “aggrecanase activity of ADAMTS5” value (ADAMTS5) was “inhibits”.
